Measured values taken from patent US20100168233A1, “TERBINAFINE FORMULATION” (POWER PAPER LTD, priority 2007, published 2010).
Where a name gives a salt, the structure may show the parent alone. Read-outs that look alike come from different tables or passages of the source.

Legend:
[1] = In vitro testing of iontophoretic delivery of terbinafine forms and hydrogel formulations to the nail bed
Source text: The acetic acid terbinafine salt may be used in the preparation of a medication for the treatment of any suitable disorder, such as the treatment of a fungal infection. In one aspect, the acetic acid terbinafine salt may be for treatment of onychomycosis.
The terbinafine acetate and/or mixture of terbinafine and acetic acid may be added to a hydrogel.

dermatophytes = conditions: cited from earlier work
[2] = cited from earlier work
[3] = cited from earlier work; remark: listed apart in the source

CN(C/C=C/C#CC(C)(C)C)Cc1cccc2ccccc12 [terbinafine HCl, terbinafine hydrochloride]
delivery of terbinafine to the nail bed [1]: about 45 μg/cm^2
minimum inhibitory concentration (MIC) for dermatophytes (dermatophytes): about 0.0015 μg/ml

CN(C/C=C/C#CC(C)(C)C)Cc1cccc2ccccc12 [terbinafine base, N,6,6-trimethyl-N-(naphthalen-1-ylmethyl) hept-2-en-4-yn-1-amine]
delivery of terbinafine to the nail bed [1]: about 10 μg/cm^2
water solubility ([2]; listed as Terbinafine base): significantly less water soluble

CN(C/C=C/C#CC(C)(C)C)Cc1cccc2ccccc12 [terbinafine, N,6,6-trimethyl-N-(naphthalen-1-ylmethyl) hept-2-en-4-yn-1-amine]
pKa of terbinafine [3]: about 7.1
solubility in methanol and ethanol [2]: very soluble
water solubility [2]: low

terbinafine acetate
delivery of terbinafine to the nail bed ([1]; in vitro, iontophoretic delivery, similar conditions): about 150 μg/cm^2
